# Experimental data taken from PMC6923382, “Small molecules that inhibit TNF signalling by stabilising an asymmetric form of the trimer” (Nature Communications, 2019).
# Where “and” joins values, the source holds several entries; their conditions need not be identical. Equal values may be shown once.
# Tests used:
# TNF [1] = target: T1, TNF (Homo sapiens, UniProt P01375); test: TNF reporter gene assay HEK-293, human TNF; format: cell-based; parameters: stabilise an asymmetrical form of the soluble TNF trimer; details: 10 pM wild-type TNF; HEK NFκΒ reporter
# Experimental: Stimulation of HEK-293 cells by TNF leads to activation of the NF-κB pathway. The HEK-Blue^TM CD40L SEAP (secreted embryonic alkaline phosphatase) reporter cell line used to determine TNF activity (InvivoGen, #hkb-CD40, cells were described as mycoplasma free when purchased and were tested using Mycoalert [Lonza] after each batch of assay vial preparation). […] Cells were added to the compound/stimulus mixture and further incubated for 18 h. SEAP was measured using the colorimetric substrate HEK-Blue Detect^TM or QUANTI-Blue^TM from InvivoGen. […] The IC50 was determined as the point of inflexion between the fitted minimum and maximum of the compound dose response curve, calculated using 4PL fitted curve. Mean IC50s are reported as a mean of at least two experiments.
# Target sequence in this assay (P01375 77-233 limits assumed): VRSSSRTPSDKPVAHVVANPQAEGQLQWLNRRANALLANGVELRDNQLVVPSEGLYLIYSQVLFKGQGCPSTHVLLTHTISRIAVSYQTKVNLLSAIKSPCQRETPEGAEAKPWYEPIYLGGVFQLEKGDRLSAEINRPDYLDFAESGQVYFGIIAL
# TNF [2] = target: T1, TNF; test: Biacore kinetics of binding; parameters: Human TNF (CID2043, UniProt P01375 residues 77–233); 6XHis-Smt3 (N, cleaved yes); host or cells: E. coli TOP10; details: SPR single-cycle, linked TNF with n-terminal HKH tag
# Experimental: Surface plasmon resonance using a Biacore T100/T200 was used to measure the association rate constant (ka), the dissociation rate constant (kd) and the affinity (KD) of compounds. TNF (VCID 2043 Beryllium) was immobilised to approximately 5 kRU as described above and equilibrated for at least 5 h in HBS P + buffer with 5% DMSO. UCB-6876 was serially diluted from 187.5 µM, flowing over the immobilised TNF at 50 µL/min for 3 min before allowing full dissociation under flow for at least 6 min. […] […] The compounds were allowed to dissociate for 2 h under flow.
# Target sequence in this assay (P01375 with tags, fused parts or gaps): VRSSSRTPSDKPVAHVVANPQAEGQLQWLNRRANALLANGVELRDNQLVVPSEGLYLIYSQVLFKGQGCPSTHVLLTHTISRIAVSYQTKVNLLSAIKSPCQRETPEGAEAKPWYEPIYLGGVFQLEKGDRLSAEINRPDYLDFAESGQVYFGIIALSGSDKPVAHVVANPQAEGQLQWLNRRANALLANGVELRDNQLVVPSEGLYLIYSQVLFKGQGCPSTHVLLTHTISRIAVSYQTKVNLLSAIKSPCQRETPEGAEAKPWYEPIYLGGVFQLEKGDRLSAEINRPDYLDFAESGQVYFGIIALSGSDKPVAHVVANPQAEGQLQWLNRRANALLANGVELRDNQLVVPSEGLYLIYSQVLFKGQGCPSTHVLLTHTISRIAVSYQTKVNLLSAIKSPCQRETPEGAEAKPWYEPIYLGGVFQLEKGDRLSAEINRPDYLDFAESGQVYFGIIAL
# TNF [3] = target: T1, TNF; test: Thermal denaturation assay of thermal stability; format: binding; parameters: stabilise an asymmetrical form of the soluble TNF trimer
# Experimental: A fluorescence probed thermal denaturation assay was performed to assess the effect of the compounds on the thermal stability of TNF (or other members of the TNF family) as a measure of compound binding. The reaction mixture contained 5 µL of 30× SYPRO® Orange dye (Invitrogen) and 5 µL of TNF (at 1 mg/mL), 37.5 μL PBS, pH 7.4 and 2.5 μL of compound (at 2 mM in DMSO). The mixture (10 µL) was dispensed in quadruplicate into a 384 PCR optical well plate and was run on a 7900HT Fast Real-Time PCR System ([…]). The PCR System heating device was set at 20 °C to 99 °C with a ramp rate of 1.1 °C min^−1; fluorescence changes in the wells were monitored by a CCD device. The fluorescence intensity increase was plotted as a function of temperature and the Tm calculated as the midpoint of this denaturation curve (determined as the point of inflection).
# Target sequence in this assay (P01375 77-233 limits assumed): as the sequence (P01375 77-233 limits assumed) above
# hTNF/hTNFR1 complex = target: T2, hTNF/hTNFR1 complex (Homo sapiens, UniProt P01375); test: Analytical size exclusion chromatography of TNF:TNFR1 stoichiometry; format: biochemical
# T2 construct: stabilise an asymmetrical form of the soluble TNF trimer; host or cells: BV (baculovirus) for hTNFR1
# T2 sequence (P01375 77-233 limits assumed): as above
# T2 sequence (P19438 43-184 partner limits assumed): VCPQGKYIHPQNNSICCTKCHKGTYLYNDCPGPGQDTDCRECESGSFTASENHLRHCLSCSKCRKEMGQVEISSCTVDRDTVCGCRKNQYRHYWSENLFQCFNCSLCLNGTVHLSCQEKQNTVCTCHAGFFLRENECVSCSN
# Experimental: A stock of compound bound to human (h) TNF was prepared by pre-incubating hTNF (300 μM, molecular weight based on the homotrimer) overnight at 4 °C with UCB-5307 at a final concentration range from 90 μM to 690 μM, maintaining a constant DMSO concentration of 1%. The compound-bound hTNF was incubated for 1 h at 22 °C with hTNFR1 at a 3.2-fold molar excess over homotrimers (final concentrations: hTNFR1 240 μΜ, hTNF 75 µM). Identical samples were prepared with DMSO only, giving a final DMSO concentration of 0.25% for both sets of samples. Alternatively, a fully assembled hTNF/hTNFR1 complex (3 receptors per homotrimer) was formed by incubating hTNF with a 3.2-fold molar excess of hTNFR1 for 1 h at 22 °C. The TNF/TNFR1 complex was then incubated overnight at 4 °C with UCB-5307 at a final concentration range from 90 µM to 690 µM. Samples were subject to analytical size exclusion using HPLC. Injection volumes of 50 µL were separated on a TSK G3000SW L × I.D. 30 cm × 7.5 mm column (10 µm particle size) pre-equilibrated in 10 mM HEPES, pH 7.5, 150 mM NaCl.
# TNF (L57F) = target: T3, TNF (L57F) (Homo sapiens, UniProt P01375, L133F); test: HEK reporter gene assay, L57F TNF; format: cell-based; details: 10 pM L57F TNF; HEK NFκΒ reporter
# T3 construct: Human TNF (CID2043, UniProt P01375 residues 77–233); 6XHis-Smt3 (N, cleaved yes); host or cells: E. coli
# T3 sequence (P01375 77-233 L133F): as the sequence (P01375 77-233 limits assumed) above, with L57F counted along it
# Experimental: Stimulation of HEK-293 cells by TNF leads to activation of the NF-κB pathway. The HEK-Blue^TM CD40L SEAP (secreted embryonic alkaline phosphatase) reporter cell line used to determine TNF activity (InvivoGen, #hkb-CD40, cells were described as mycoplasma free when purchased and were tested using Mycoalert [Lonza] after each batch of assay vial preparation). Compounds were titrated in DMSO and pre-incubated with TNF at a concentration giving half maximal response (10 pM for human or 20 pM for mouse) or the anti-human TNFR1 agonist antibody (R&D Systems. #AF 225) for 1 h. Cells were added to the compound/stimulus mixture and further incubated for 18 h. SEAP was measured using the colorimetric substrate HEK-Blue Detect^TM or QUANTI-Blue^TM from InvivoGen. Percentage inhibitions for compound dilutions were calculated between a DMSO control and maximum inhibition (by excess anti-TNF biologic, or NF-κB inhibitor–TPCA-1 [Tocris #2559, R&D Systems]). The IC50 was determined as the point of inflexion between the fitted minimum and maximum of the compound dose response curve, calculated using 4PL fitted curve. Mean IC50s are reported as a mean of at least two experiments. Dose response curves for TNF and the anti-human TNFR1 agonist antibody are shown in Supplementary Fig. 9. […]
# In this assay reduction is luminescence is due to cell killing by TNF and inhibition causes increased luminescence. […]
# TNF [4] = target: T1, TNF; test: Biacore SPR fragment binding to immobilised TNF; parameters: Human TNF (CID2043, UniProt P01375 residues 77–233); 6XHis-Smt3 (N, cleaved yes); host or cells: E. coli TOP10; details: SPR fragment screen; concentration-dependent response
# Description: (§1) BIA (Biomolecular Interaction Analysis) uses SPR to measure the binding of compounds to a protein immobilised on a chip surface. For this purpose a Biacore A100/4000 (GE Healthcare) was used. A CM5 sensor was immobilised via amine coupling on flow cell 1 with human Fc antibody domain (10k response units; kRU) and TNFR-Fc captured (2.5 kRU), flow cell 2 TNF (11 kRU), flow cell 3 was left blank (for non-specific binding), flow cell 4 TNFR-Fc (10 kRU), and flow cell 5 goat anti-human Fc 16 kRU). The sensor surface was then equilibrated in HBS-P (10 mM HEPES pH 7.4, 0.15 M NaCl, 0.005% Surfactant P20, BIAcore, GE Healthcare) with 5% DMSO for at least 5 h. Compounds were diluted from 100 mM stocks into DMSO matched buffer and then flowed over the immobilised flow cells at a concentration of 250 µM at the maximum flow rate of 30 μL/min. Background subtraction binding curves were analysed using the Biacore A100 BIA evaluation software version 1.1 following standard procedures.
# Target sequence in this assay (P01375 77-233): as the sequence (P01375 77-233 limits assumed) above
# [5] = Dynamic light scattering (colloidal aggregation); format: physicochemical; details: 100 μM; no detergent; 25°C; n=5
# Experimental: Dynamic light scattering (DLS) experiments have been performed with compounds […]
# baseline control and positive control (miconazole at 100 μM) were included. The radius data […]
# compound in the absence of detergent.
# DLS data (Malvern Nano ZS). Each sample (150 μl) was measured 5 times in a low volume disposable sizing cuvette at 25°C using 173º non-invasive backscatter (NIBS). […]
# [6] = tested on: TNFR1 extracellular domain and control proteins; test: Biacore SPR binding to control surfaces; details: capture antibody plus TNFR1, capture antibody
# Description: as §1
# mouse TNF = target: T4, mouse TNF (Mus musculus, UniProt P06804); test: Mouse TNF induced neutrophil recruitment in vivo; details: Etanercept 30 mg/kg i.v.; mouse TNF; individual mice
# T4 construct: stabilise an asymmetrical form of the soluble TNF trimer
# T4 sequence (P06804 80-235 limits assumed): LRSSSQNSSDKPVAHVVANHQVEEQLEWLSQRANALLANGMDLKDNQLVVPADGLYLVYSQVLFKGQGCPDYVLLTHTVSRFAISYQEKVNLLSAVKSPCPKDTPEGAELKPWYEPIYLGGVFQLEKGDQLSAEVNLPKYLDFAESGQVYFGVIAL
# Experimental: All in vivo studies were reviewed by an internal Ethical Review Body (ERB) and conducted in accordance with the Animals (Scientific Procedures) Act 1986, EU Directive 2010/63/EU. […] Anti-TNFα biologics, CDP571[21] (10 mg/kg) and etanercept (30 mg/kg), diluted in PBS, were dosed intravenously prior to human and mouse TNF challenge. Two hours after the TNF challenge, mice were sacrificed and the peritoneal cavity lavaged with 3 mL of FACS buffer. An aliquot (0.3 mL) of lavage fluid was used to assess the number CD45^+GR1^+ cells by flow cytometry. Briefly, the cells were treated with ACK lysis buffer, washed and suspended in FACS buffer prior to staining with FITC anti-mouse CD45 and PE anti-mouse GR1. Data are shown as mean ± standard error of the number of CD45^+GR-1^+ cells. Statistical significance (*p < 0.05, **p < 0.01, ****p < 0.0001) was determined using one-way ANOVA with Dunnett’s multiple comparison test.
# [7] = target: T5, Mouse TNF (mouse), P06804; test: native MS; mouse and human TNF, each 20 µM in 20 mM ammonium acetate pH 7.4, mixed 1:1 and analysed at various time points; no compound; nanospray, Exactive Plus EMR; details: remark: other sources report otherwise
# T5 chain: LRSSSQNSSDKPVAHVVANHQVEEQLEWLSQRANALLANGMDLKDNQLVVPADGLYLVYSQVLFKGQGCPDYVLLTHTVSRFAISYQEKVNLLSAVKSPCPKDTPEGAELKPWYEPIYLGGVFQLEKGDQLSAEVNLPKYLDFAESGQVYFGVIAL
# [8] = target: T5, Mouse TNF (mouse), P06804; test: native MS; human TNF pre-incubated (saturated) with UCB-6876, then mixed 1:1 with mouse TNF; 20 mM ammonium acetate, 4% DMSO in the compound stock; various time points; details: remark: other sources report otherwise
molecule,measurement,setting,value
Cc1ccc(C)c(Cn2c(C(O)c3ccncc3)nc3ccccc32)c1 (stereo not shown) [UCB-5307],inhibition of wild-type TNF,TNF [1],inhibited
same,kd (off-rate),TNF [2],5.76e-05 s⁻¹
same,Kd,TNF [2]; read-out: KD,9 nM
same,Tm difference (hTNF + compound) - (hTNF+DMSO),TNF [3]; DMSO 5%,12.2 °C
same,Tm (mean ± SD),"TNF [3]; hTNF + DMSO (5%) + compound, n=4 replicates",72.9 ± 0.6 °C
same,Tm1 Average,"TNF [3]; inhouse hTNF 5% DMSO + compound, 4 wells",72.9 °C
same,Unreviewed - Tm1,"TNF [3]; single wells, inhouse hTNF 5% DMSO + compound, listed as 1445307-000, in °C",72.4 and 73.5 and 73.2
same,"number of TNFR1 bound per hTNF trimer, hTNF preloaded with compound","hTNF/hTNFR1 complex; 90-690 μM compound overnight, then 3.2-fold excess hTNFR1",dose-dependent shift from three receptors bound to two
same,effect on preformed hTNF/hTNFR1 complex,"hTNF/hTNFR1 complex; 90-690 µM compound, 3.2-fold excess hTNFR1",dislodging one of the receptors
same,inhibition of L57F TNF,TNF (L57F),did not inhibit
Cc1ccccc1Cn1c(CO)nc2ccccc21 [UCB-6786],binding to immobilised TNF,TNF [4],bound to TNF
same,colloidal aggregation (DLS radius),[5],no evidence of colloidal aggregation
same,binding to TNFR1 and control proteins (selectivity),[6],selectivity over the TNFR1 extracellular domain and control proteins
Etanercept [reference compound],CD45+ GR-1+ cells/mL in the peritoneal cavity,mouse TNF,6123.9 cells/mL and 7203.0 cells/mL and 3131.9 cells/mL and 6069.0 cells/mL and 1965.3 cells/mL
"Mouse TNF, P06804 80-235 (ligand) LRSSSQNSSDKPVAHVVANHQVEEQLEWLSQRANALLANGMDLKDNQLVVPADGLYLVYSQVLFKGQGCPDYVLLTHTVSRFAISYQEKVNLLSAVKSPCPKDTPEGAELKPWYEPIYLGGVFQLEKGDQLSAEVNLPKYLDFAESGQVYFGVIAL",stoichiometry N,[7],3
same,stoichiometry N,[8],3
